Test results as given in patent publication US8058444B2, “Heterocycle-substituted pyridine derivative's salt or crystal thereof” (Eisai R&D Management Co., Ltd., priority 2007, dated 2011).
Where a name gives a salt, the structure may show the parent alone.

System: C. albicans E81022 strain
Assay: Experimental systemic candidal infection model in mice
Assay type: in vivo
Settings: peroral (into the stomach), female ICR mice infected i.v. with C. albicans E81022, observed until 14 days after infection
Experimental: 1. Experimental Systemic Candidal Infection Model in Mice
A standing culture of C. albicans E81022 strain was carried out for 48 hours at 30° C in sabouraud dextrose agar medium (SDA), the recovered fungal cells were suspended in sterilized physiological saline. By counting the fungal number on cytometry plate, the suspension was diluted to 2×10^7 cells/mL with sterilized physiological saline to serve fungal inoculum.
The fungal inoculum was used in the amounts of 0.2 mL to inoculate 4.5 to 5.5 week-old female ICR mice in the tail vein (4×10^6 cells/mouse).
From 0.5 and 1 hours after fungal inoculation, 0.2 mL of agent solution (compound of Reference Example 1 dissolved to 5 mg/ml in 50 mM hydrochloric acid, diluted suitably in sterile water, and then, diluted 10-fold in 5% fructose solution) was administered into the stomach using a peroral probe twice every 6 hours. […]
The protective effect was determined by observing lifeldeath until 14 days after infection and calculating the mean survival days.

For `Nc1ncccc1-c1cc(Cc2ccc(COc3ccccn3)cc2)no1` [Hydrochloride of Reference Example 1, 3-(3-(4-(Pyridin-2-yloxymethyl)-benzyl)-isoxazol-5-yl)-pyridin-2-yl amine], the “Mean Survival Days” value (2.5 mg/kg) was 11.0 days and the “Mean Survival Days” value (5 mg/kg) was 13.4 days.
